Assay results: PubChem BioAssay (NCI)
“And” between values parts separate entries of the source, which are not always exact repeats. Equal values may be shown once.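 Each compound was tested at five concentrations against cells in 96-well plates for 48 hours. Abbreviation: GI50, concentration required for 50% inhibition of growth. The concentration for full growth arrest is given as TGI.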

Experiments:
Assay in all cases: NCI anticancer screen, dose series, 48 h
[1] = tested on: HCT-15 colon
[2] = tested on: IGROV1 ovarian
[3] = tested on: M14 melanoma
[4] = tested on: MDA-MB-435
[5] = tested on: OVCAR-3 ovarian
[6] = tested on: PC-3 prostate
[7] = tested on: SF-268 CNS
[8] = tested on: SN12C renal

| SMILES | GI50 [1] | TGI [1] | GI50 [2] | TGI [2] | GI50 [3] | TGI [3] | GI50 [4] | TGI [4] | GI50 [5] | TGI [5] | GI50 [6] | TGI [6] | GI50 [7] | TGI [7] | GI50 [8] | TGI [8] |
| --- | --- | --- | --- | --- | --- | --- | --- | --- | --- | --- | --- | --- | --- | --- | --- | --- |
| CCN(CC)CCCC(C)N=c1cc(Nc2cc(=NC(C)CCCN(CC)CC)c3cc(OC)ccc3o2)oc2ccc(OC)cc12 (stereo not drawn) | 0.851 µM | 2.33 µM | 1.89 µM | 8.72 µM | 0.967 µM | 1.79 µM | 0.871 µM | 1.68 µM | 1.29 µM | 2.92 µM | 1.49 µM | 6.8 µM | 2.15 µM | 8.72 µM | 1.4 µM | 11.8 µM |
| C[C@H]1[C@H]2[C@H]3CC[C@@H]4[C@@]5(C)C/C(=C/c6cccnc6)C(=O)C(C)(C)[C@@H]5CC[C@@]4(C)[C@]3(C)CC[C@]23CO[C@]1(C)[C@@H](C(=O)/C=C\c1cccnc1)C3 | 0.982 µM | 2.56 µM | 0.975 µM | 2.2 µM | 1.57 µM | 11.9 µM | 1.17 µM | 2.93 µM | 0.886 µM | 1.91 µM | 0.498 µM | 3.37 µM | 1.27 µM | 4.17 µM | 1.1 µM | > 11.8 µM |
| C/C(=C\COc1c2c(cc3c1CCO3)OC1(C=C2)OC(CC/C(C)=C/COc2c3ccoc3cc3oc(=O)ccc23)C(C)(C)O1)CCC(O)C(C)(C)O (stereo not drawn) | 85 µM | > 100 µM |  |  | 85.1 µM | > 100 µM | 36.4 µM | > 100 µM | 15 µM | > 100 µM | 6.56 µM | > 100 µM | 21.1 µM | > 100 µM | 89.1 µM | > 100 µM |
| CC/C(=C(/c1ccc(O)cc1)c1ccc(OCCN2CCCCC2)cc1)c1ccc(OC)cc1 | 1.45 µM | 5.46 µM | 2.5 µM | 8.95 µM | 1.73 µM | 3.38 µM | 1.58 µM | 3.1 µM | 1.6 µM | 4.23 µM | 1.41 µM | 3.34 µM | 2.14 µM | 6.38 µM | 2.82 µM | 11.3 µM |
| COc1cc(-c2ncn(/C=C\C(=O)OC(C)C)n2)cc(C(F)(F)F)c1 | 0.0715 µM and 0.0543 µM | 7.93 µM and 6.39 µM | 0.503 µM and 0.171 µM | 15.8 µM and 15.6 µM | 0.228 µM and 0.35 µM | 4.74 µM and 14.5 µM | 0.0437 µM and 0.0485 µM | 0.702 µM and 0.457 µM | 0.0406 µM and 0.0353 µM | 1.29 µM and 0.857 µM | 0.106 µM and 0.0584 µM | 14.9 µM and 12.8 µM | 0.0493 µM and 0.0487 µM | 8 µM and 3.58 µM | 0.28 µM and 0.314 µM | 11.7 µM and 11 µM |
| O=C(Nc1nc2ccc(F)cc2s1)c1cccnc1Nc1ccc(Cl)cc1 | 2.74 µM | > 100 µM | 2.6 µM | > 34.1 µM | 2.94 µM | > 100 µM | 3.11 µM | > 100 µM | 2.11 µM | 9.57 µM | 1.93 µM | > 27.4 µM | 3.68 µM | > 100 µM | 2.63 µM | > 100 µM |
| Cc1ccc(-c2nc(N3CCCNCC3)c3oc(-c4ccccc4)nc3n2)cc1 | 1.4 µM | 2.77 µM | 1.67 µM | 3.24 µM | 1.76 µM | 3.29 µM | 1.77 µM | 3.19 µM | 1.83 µM | 3.38 µM | 1.57 µM | 3 µM | 1.83 µM | 3.66 µM | 1.69 µM | 3.21 µM |
| Cc1cc(O)cc(C)c1/C=C/c1cncc(-c2nn[nH]n2)c1 | > 25 µM | > 25 µM | > 25 µM | > 25 µM | > 25 µM | > 25 µM | > 25 µM | > 25 µM | > 25 µM | > 25 µM | > 25 µM | > 25 µM | > 25 µM | > 25 µM | > 25 µM | > 25 µM |
| Cc1ncsc1-c1ccc(CNC(=O)[C@@H]2C[C@@H](O)CN2C(=O)[C@@H](NC(=O)C2(C#N)CC2)C(C)(C)C)cc1 | > 100 µM | > 100 µM | > 100 µM | > 100 µM |  |  | > 100 µM | > 100 µM | > 100 µM | > 100 µM | > 100 µM | > 100 µM | > 100 µM | > 100 µM | > 100 µM | > 100 µM |
| C=C(CN1CCN(c2cccc(C(F)(F)F)n2)CC1)c1ccc(C(=S)Nc2ccccc2N)cc1 | 4.11 µM | > 100 µM | 6.93 µM | > 100 µM | 3.81 µM | 41.3 µM | 3.77 µM | > 100 µM | 4.34 µM | > 100 µM |  |  | 8.08 µM | > 100 µM | 4.64 µM | > 100 µM |
| O=C(NN=C1CCCCC1)c1[nH]c2ccc(F)cc2c1-c1ccccc1 | 15.6 µM | 50.9 µM | 65.9 µM | > 100 µM |  |  | 35.3 µM | > 100 µM | 21.8 µM | > 100 µM | 52.1 µM | > 100 µM | 18.9 µM | > 100 µM | 28.6 µM | 84.8 µM |
| C=C1C(=O)O[C@@H]2C1C[C@@H](O)C(=C)CC/C=C(\C)CCC[C@H](C)[C@H]2OC(C)=O (stereo partly drawn) | 3.04 µM | 14 µM | 5.17 µM | 19.5 µM |  |  | 12.9 µM | 26.7 µM | 3.38 µM | 12.6 µM | 6.1 µM | 22.9 µM | 11 µM | 30.5 µM | 3.5 µM | 15.3 µM |
| C/C(=C(\c1ccc(OCCN2CCCCCC2)cc1)c1ccc(OC(=O)Cc2ccccc2)cc1)c1ccc(Cl)cc1 | 1.79 µM | 4.26 µM | 2.8 µM | 6.51 µM | 1.87 µM | 4.15 µM | 2.46 µM | 4.66 µM | 2.75 µM | 5.22 µM |  |  | 2.84 µM | 6.11 µM | 2.56 µM | 5.07 µM |
| C=C(C)[C@@H]1CC[C@]2(CO)CC[C@]3(C)[C@H](CC[C@@H]4[C@@]5(C)CCC(NCCc6ccc(O)cc6)C(C)(C)[C@@H]5CC[C@]43C)[C@@H]12 (stereo partly drawn) | 1.23 µM | 2.68 µM |  |  | 1.6 µM | 3.05 µM | 1.43 µM | 2.77 µM | 1.69 µM | 3.21 µM | 1.3 µM | 2.64 µM | 1.86 µM | 3.67 µM | 1.67 µM | 3.19 µM |
| CCOc1ccccc1NC(=O)CCc1n[nH]c(=S)o1 |  |  |  |  |  | > 100 µM |  |  |  | > 100 µM |  |  |  | > 100 µM |  | > 100 µM |
| CCCCN(CCCC)CCCn1c(=O)c2c3ccccc3n(C)c2n2nnc(-c3ccccc3)c12 | 20.7 µM | > 100 µM |  |  | 21.6 µM | > 100 µM | 39 µM | > 100 µM | 48.6 µM | > 100 µM | 18.2 µM | 47.4 µM | > 100 µM | > 100 µM | 19.4 µM | 94.8 µM |
